One test concerns the target T1, Recombinant human renin (Homo sapiens, UniProt P00797).
T1 construct: with trypsin, and isolate the active form (residues 67-406); made in house; host or cells: FreeStyle 293-F cells (transient expression of pcDNA3.1(+)/hREN)
T1 sequence (P00797 67-406): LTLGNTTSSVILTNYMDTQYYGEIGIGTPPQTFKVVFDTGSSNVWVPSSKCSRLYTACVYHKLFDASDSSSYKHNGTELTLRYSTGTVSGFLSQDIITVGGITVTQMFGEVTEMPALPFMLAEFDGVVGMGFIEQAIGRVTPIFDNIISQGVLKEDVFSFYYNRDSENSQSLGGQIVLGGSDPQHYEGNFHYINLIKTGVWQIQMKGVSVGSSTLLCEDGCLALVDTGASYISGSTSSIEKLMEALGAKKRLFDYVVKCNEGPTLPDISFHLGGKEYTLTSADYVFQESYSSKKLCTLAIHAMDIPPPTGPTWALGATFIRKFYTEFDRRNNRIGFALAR
In words: in vitro enzymatic activity of renin inhibitors (fluorescence). As to conditions: fluorogenic peptide substrate. The format is biochemical. From the text: Test compounds in varying concentrations may be reacted with recombinant human renin in the presence of substrate, e.g., QXL520-γ-Abu-Ile-His-Pro-Phe-His-Leu-Val-Ile-His-Thr-Lys (HiLyteFluo488)-Arg-OH (Anaspec, San Jose, Calif.). The reaction can be followed kinetically using fluorescence (excitation λ=485 nm; emission λ=538 nm). Inhibition constants (IC50) may be calculated by non-linear curve fitting of the compound concentrations and fluorescence intensities to the standard IC50 equation.
Solutions of test compounds in varying concentrations (≦2 mM final concentration) are prepared in dimethyl sulfoxide (DMSO) and then diluted into assay buffer comprising 50 mM Hepes, 1 mM EDTA, 1 mM DTT, 0.1 mg/ml BSA, 0.01% Brij35, pH 7.4. Alternatively, the assay can be performed with a high BSA concentration, wherein the buffer contains an additional 2% BSA.
Recombinant human renin (3 nM final concentration) is added to the dilutions and pre-incubated with the compounds for 10 minutes at 37° C. As described in Examples A-C above, human renin can be obtained by expressing preprorenin (residue 1-406) in mammalian cells, treating the prorenin (residues 24-406) contained in the culture supernatant with trypsin, and isolate the active form (residues 67-406). After pre-incubation, the reaction is initiated with 1 μM of substrate QXL520-γ-Abu-Ile-His-Pro-Phe-His-Leu-Val-Ile-His-Thr-Lys (HiLyteFluo488)-Arg-OH (Anaspec, San Jose, Calif.). The final DMSO in the assay is 5%. The total volume of the reaction mixture is 20 μL, which can be placed on Greiner 384-well small volume plates.
Renin activity may be determined via fluorescence (excitation λ=485 nm; emission λ=538 nm), e.g., on a Molecular Devices SPECTROmax GEMINI XPS. The fluorescence intensity is determined upon the addition of substrate and determined again after incubation at 37° C. for one hour. The fluorescence intensity of a blank (no inhibition) using vehicle alone is also determined. Renin activity is linearly proportional to the change in fluorescence observed (final—initial).
The percent inhibition of renin at a given compound concentration is defined as: 100%×[1−(Fcompound/Fblank)] where Fcompound is the observed fluorescence at a given concentration of test compound and Fblank is the observed fluorescence in the presence of vehicle alone.
The pIC50 value (negative log of the molar concentration of the compound that produces 50% inhibition) of a test compound is calculated by non-linear least squares curve fitting of the equation: Percent Inhibition=100%/(1+(10−pIC50/10 log [I])) to percent inhibition versus compound concentration. The 50% inhibitory concentration (IC50) of a test compound is calculated by raising 10 to the negative pIC50 (10-pIC50).

Another test concerns the target Human DPP-IV (Homo sapiens, UniProt P27487). As to the kind of experiment: in vitro enzymatic activity of inhibitors against DPP-IV. The format is biochemical. Conditions: AP-AFC substrate. Here is the method: Solutions of test compounds in varying concentrations ([…]) were prepared in dimethyl sulfoxide (DMSO) and then diluted into assay buffer comprising: 20 mM Tris, pH 7.4; 20 mM KCl; and 0.1 mg/mL BSA. Human DPP-IV (0.1 nM final concentration) was added to the dilutions and pre-incubated for 10 minutes at ambient temperature before the reaction was initiated with A-P-7-amido-4-trifluoromethylcoumarin (AP-AFC; 10 μM final concentration). The total volume of the reaction mixture was 10-100 μL depending on assay formats used (384 or 96 well plates). The reaction was followed kinetically (excitation λ=400 nm; emission λ=505 nm) for 5-10 minutes or an end-point was measured after 10 minutes. Inhibition constants (IC50) were calculated from the enzyme progress curves using standard mathematical models.

SMILES strings stand for the structures.

Chain of Human DPP-IV (P27487 whole entry): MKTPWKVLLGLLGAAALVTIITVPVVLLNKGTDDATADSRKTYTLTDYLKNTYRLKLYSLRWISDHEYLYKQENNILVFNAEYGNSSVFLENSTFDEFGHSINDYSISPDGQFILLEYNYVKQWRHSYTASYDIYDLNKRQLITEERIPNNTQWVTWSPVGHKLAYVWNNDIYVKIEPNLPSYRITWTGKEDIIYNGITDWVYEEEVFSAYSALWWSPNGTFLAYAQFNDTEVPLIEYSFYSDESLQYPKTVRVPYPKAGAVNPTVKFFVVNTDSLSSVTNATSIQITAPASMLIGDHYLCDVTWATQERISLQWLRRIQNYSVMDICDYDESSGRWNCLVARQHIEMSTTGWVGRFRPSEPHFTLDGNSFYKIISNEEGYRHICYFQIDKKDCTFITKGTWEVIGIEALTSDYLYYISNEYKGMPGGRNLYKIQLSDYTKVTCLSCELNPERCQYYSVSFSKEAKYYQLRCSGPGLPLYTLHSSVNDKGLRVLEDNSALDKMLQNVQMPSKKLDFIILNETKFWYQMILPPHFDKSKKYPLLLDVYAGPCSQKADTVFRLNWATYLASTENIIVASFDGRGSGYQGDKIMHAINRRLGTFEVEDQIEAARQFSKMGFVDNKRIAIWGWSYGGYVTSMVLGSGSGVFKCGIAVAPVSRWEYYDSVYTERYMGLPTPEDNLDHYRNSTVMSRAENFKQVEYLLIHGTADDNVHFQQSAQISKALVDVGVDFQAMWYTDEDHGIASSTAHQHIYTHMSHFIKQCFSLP

As to `COc1ccc(F)cc1-c1c(CN)c(NCc2cccc(OCc3ccccc3)c2)nc2c1c(=O)n(C)c(=O)n2C` [Compound 82, 6-(aminomethyl)-7-(3-(benzyloxy)benzylamino)-5-(5-fluoro-2-methoxyphenyl)-1,3-dimethylpyrido[2,3-d]pyrimidine-2,4(1H,3H)-dione], the concentration for half-maximal inhibition (IC50) (usually the point on the concentration scale where inhibition reaches its midpoint) was 1 to 10 µM at Recombinant human renin and below 1 µM against Human DPP-IV.

Regarding `CCNCc1c(NCc2ccc3ccccc3c2)nc2c(c1-c1cc(OC)cc(OC)c1)c(=O)n(C)c(=O)n2C` [Compound 86, 5-(3,5-dimethoxyphenyl)-6-((ethylamino)methyl)-1,3-dimethyl-7-(naphthalen-2-ylmethylamino)pyrido[2,3-d]pyrimidine-2,4(1H,3H)-dione], the IC50 at Recombinant human renin is 10 to 100 µM; against Human DPP-IV it was above 100 µM.

Turning to `COc1cc(OC)cc(-c2c(CN)c(NCc3ccc4ccccc4c3)nc3c2c(=O)n(C)c(=O)n3C)c1` [Compound 57, 6-(aminomethyl)-5-(3,5-dimethoxyphenyl)-1,3-dimethyl-7-(naphthalen-2-ylmethylamino)pyrido[2,3-d]pyrimidine-2,4(1H,3H)-dione], the results for the IC50 at Recombinant human renin and against Human DPP-IV were 1 to 10 µM and above 100 µM, respectively.

Take `COc1ccc(Oc2cccc(-c3c(CN)c(NCc4ccc5ccccc5c4)nc4c3c(=O)n(C)c(=O)n4C)c2)cc1` [Compound 60, 6-(Aminomethyl)-5-(3-(4-methoxyphenoxy)phenyl)-1,3-dimethyl-7-(naphthalen-2-ylmethylamino)pyrido[2,3-d]pyrimidine-2,4(1H,3H)-dione]: the IC50 on Recombinant human renin fell in the range of 1 to 10 µM; at Human DPP-IV, 10 to 100 µM.

For `CCC(CC)Nc1nc2c(c(-c3cc(F)ccc3OC)c1CN)c(=O)n(C)c(=O)n2C` [Compound 73, 6-(aminomethyl)-5-(5-fluoro-2-methoxyphenyl)-1,3-dimethyl-7-(pentan-3-ylamino)pyrido[2,3-d]pyrimidine-2,4(1H,3H)-dione], the IC50 at Recombinant human renin was 1 to 10 µM.

For `COc1ccc(F)cc1-c1c(CN)c(NCCc2ccccc2)nc2c1c(=O)n(C)c(=O)n2C` [Compound 93, 6-(Aminomethyl)-5-(5-fluoro-2-methoxyphenyl)-1,3-dimethyl-7-(phenethylamino)pyrido[2,3-d]pyrimidine-2,4(1H,3H)-dione], the figures for the IC50 on Recombinant human renin and on Human DPP-IV were 10 to 100 µM and below 1 µM, respectively.

Turning to `CCOc1ccc(OCC)c(-c2c(CN)c(NCc3ccc4ccccc4c3)nc3c2c(=O)n(C)c(=O)n3C)c1` [Compound 64, 6-(aminomethyl)-5-(2,5-diethoxyphenyl)-1,3-dimethyl-7-(naphthalen-2-ylmethylamino)pyrido[2,3-d]pyrimidine-2,4(1H,3H)-dione], the results for the half-maximal inhibitory concentration (IC50) on Recombinant human renin and on Human DPP-IV were 1 to 10 µM and above 100 µM, respectively.

Take `COc1ccc(F)cc1-c1c(CN)c(NCc2cccc(OCC(C)C)c2)nc2c1c(=O)n(C)c(=O)n2C` [Compound 83, 6-(aminomethyl)-5-(5-fluoro-2-methoxyphenyl)-7-(3-isobutoxybenzylamino)-1,3-dimethylpyrido[2,3-d]pyrimidine-2,4(1H,3H)-dione]: the IC50 on Recombinant human renin was 1 to 10 µM; on Human DPP-IV it was below 1 µM.

Consider `CN(C)C(=O)c1cccc(-c2c(CN)c(NCc3ccc4ccccc4c3)nc3c2c(=O)n(C)c(=O)n3C)c1` [Compound 58, 3-(6-(Aminomethyl)-1,3-dimethyl-7-(naphthalen-2-ylmethylamino)-2,4-dioxo-1,2,3,4-tetrahydropyrido[2,3-d]pyrimidin-5-yl)-N,N-dimethylbenzamide], for which the concentration for half-maximal inhibition (IC50) on Recombinant human renin was in the range of 1 to 10 µM.

In the case of `COc1cccc(CNc2nc3c(c(-c4cc(F)ccc4OC)c2CN)c(=O)n(C)c(=O)n3C)c1` [Compound 71, 6-(aminomethyl)-5-(5-fluoro-2-methoxyphenyl)-7-(3-methoxybenzylamino)-1,3-dimethylpyrido[2,3-d]pyrimidine-2,4(1H,3H)-dione], the concentration for half-maximal inhibition (IC50) on Recombinant human renin fell in the range of 1 to 10 µM.

The record behind these values is patent US8133898B2, “Renin inhibitors” (Takeda Pharmaceutical Company Limited, priority 2008, dated 2012).
